PubChem BioAssay (NCI)
Where “and” joins values, the source holds several entries; their conditions need not be identical. Equal values may be shown once.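 In this assay, cells in 96-well plates receive the compound at five concentrations for 48 hours. Endpoints are linearly interpolated between the surrounding concentrations. GI50: concentration for 50% inhibition of growth. TGI: total growth inhibition.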

Experiments:
Assay in all cases: NCI anticancer screen, dose series, 48 h
EKVX NSCLC = tested on: EKVX NSCLC
HT29 colon = tested on: HT29 colon
KM12 colon = tested on: KM12 colon
LOX IMVI melanoma = tested on: LOX IMVI melanoma
NCI-H522 lung = tested on: NCI-H522 lung
NCI/ADR-RES ovarian = tested on: NCI/ADR-RES ovarian
OVCAR-4 ovarian = tested on: OVCAR-4 ovarian
SF-268 CNS = tested on: SF-268 CNS
SK-MEL-2 melanoma = tested on: SK-MEL-2 melanoma
UACC-62 melanoma = tested on: UACC-62 melanoma

SMILES	GI50 (EKVX NSCLC)	TGI (EKVX NSCLC)	GI50 (HT29 colon)	TGI (HT29 colon)	GI50 (KM12 colon)	TGI (KM12 colon)	GI50 (LOX IMVI melanoma)	TGI (LOX IMVI melanoma)	GI50 (NCI-H522 lung)	TGI (NCI-H522 lung)	GI50 (NCI/ADR-RES ovarian)	TGI (NCI/ADR-RES ovarian)	GI50 (OVCAR-4 ovarian)	TGI (OVCAR-4 ovarian)	GI50 (SF-268 CNS)	TGI (SF-268 CNS)	GI50 (SK-MEL-2 melanoma)	TGI (SK-MEL-2 melanoma)	GI50 (UACC-62 melanoma)	TGI (UACC-62 melanoma)
COC(=O)[C@@]1(O)C[C@H]2O[C@]1(C)n1c3ccccc3c3c4c(c5c6ccccc6n2c5c31)C(=O)NC4	1.92 µM	7.58 µM	0.212 µM	2.09 µM	0.0269 µM	1.07 µM	0.197 µM	1.21 µM	0.0616 µM	1.71 µM	0.415 µM	3.56 µM	1.24 µM	2.76 µM	0.63 µM	3.17 µM	0.0476 µM	1.61 µM	0.132 µM	1.55 µM
O=P1(O)c2ccccc2Nc2cc(C(F)(F)F)ccc21		> 100 µM		> 100 µM		> 100 µM		> 100 µM		> 100 µM		> 100 µM		> 100 µM		> 100 µM		> 100 µM		> 100 µM
CNc1nc(N(C)C)nc(N(C)C)n1	> 100 µM and 2180 µM	> 100 µM and 4800 µM	> 100 µM and 518 µM	> 100 µM and 3650 µM	> 100 µM and 1450 µM	> 100 µM and 3420 µM	> 100 µM and 901 µM	> 100 µM and 5150 µM	> 100 µM and 874 µM	> 100 µM and 3370 µM		2650 µM	> 100 µM and 431 µM	> 100 µM and 1260 µM	> 100 µM and 2680 µM	> 100 µM and 6220 µM	> 100 µM and 2150 µM	> 100 µM and 4820 µM	> 100 µM and 952 µM	> 100 µM and 3640 µM
CCCCCCCCCCCC[n+]1ccc(C(N)=O)cc1	2.55 µM	12.8 µM	2.18 µM	13.1 µM	1.43 µM	3 µM	2.4 µM	13.2 µM	2.33 µM	8.38 µM	> 100 µM	> 100 µM	4.73 µM	17.5 µM	2.78 µM	11.5 µM	3.51 µM	9.13 µM	2.74 µM	11.6 µM
C=C1C(=O)O[C@H]2[C@H]1CC/C(CNS(=O)(=O)c1cccc3ccccc13)=C\CC[C@@]1(C)O[C@@H]21	2.53 µM	10.3 µM	1.85 µM	3.86 µM	9.76 µM	25.8 µM	1.45 µM	2.93 µM	1.28 µM	2.88 µM	5.08 µM	20.6 µM	1.72 µM	3.68 µM	3.74 µM	15.1 µM	5.18 µM	18.3 µM	1.67 µM	4.5 µM
O=C(/C=C/c1ccc(C(F)(F)F)cc1)c1ccc(Nc2nc(NCCO)nc(N3CCOCC3)n2)cc1	2.44 µM	8.01 µM	2 µM	4.51 µM	1.8 µM	3.3 µM	1.67 µM	3.11 µM	1.85 µM	5.04 µM	2.87 µM	9.52 µM	3.05 µM	10.2 µM	2.68 µM	11.1 µM	8.66 µM	21.5 µM	2.76 µM	8.87 µM
COc1ccc2c(c1)OC(N)=C(C#N)C2c1ccc(F)cc1 (stereo not drawn)	5.09 µM	> 100 µM	0.625 µM	13.5 µM	0.656 µM	25.8 µM	1.98 µM	> 100 µM	0.604 µM	27.1 µM	0.516 µM	> 100 µM	6.59 µM	> 100 µM	7.38 µM	> 100 µM	0.633 µM	> 100 µM	0.571 µM	> 100 µM
O=C(N/N=C\c1ccc(N(CCCl)CCCl)cc1Cl)c1cccnc1	22.6 µM	> 83.6 µM	20.2 µM	> 88.4 µM	19.4 µM	64.3 µM	16.1 µM	52.6 µM	21.4 µM	86 µM	19.6 µM	> 94.3 µM	5.28 µM	38.5 µM	23.4 µM	> 84 µM	14.3 µM	53.3 µM	0.513 µM	3.92 µM
COc1ccc(/C=C/C(=O)c2cc3c(N)c(C(=O)Nc4ccccc4)sc3nc2C)cc1	0.752 µM	> 50 µM	0.179 µM	> 26.6 µM	0.204 µM	7.18 µM	0.332 µM	2.77 µM	0.113 µM	4.56 µM	0.121 µM		0.472 µM	> 50 µM	0.517 µM	> 50 µM	0.422 µM	> 50 µM	0.119 µM	> 50 µM
CC1/C(=N/Nc2ccc([N+](=O)[O-])cc2)CC2C3(C)CCC2(C(C)C(=O)O)C(=O)C13 (stereo not drawn)	3.36 µM	> 100 µM	6.18 µM	> 100 µM	11.3 µM	> 100 µM	75.3 µM	> 100 µM	4.48 µM	> 100 µM	5.7 µM	> 100 µM	> 100 µM	> 100 µM	33.5 µM	> 100 µM	8.75 µM	> 100 µM	6.51 µM	> 100 µM
CCCN(CCC)C(=O)[C@H](CC)[C@@H]1CC[C@@H](C)[C@@H]([C@H](C)[C@@H](O)[C@@H](C)C(=O)[C@H](CC)C2O[C@]3(C=C[C@@H](O)[C@]4(CC[C@@](C)([C@H]5CC[C@](O)(CC)[C@H](C)O5)O4)O3)[C@H](C)C[C@@H]2C)O1 (stereo partly drawn)	2.59 µM	11.7 µM	3.1 µM	12.7 µM	1.86 µM	4.02 µM	1.5 µM	3 µM	1.82 µM	4.56 µM	2.93 µM	10.3 µM	2.95 µM	13.2 µM	3.43 µM	22.7 µM	2.43 µM	6.63 µM	1.71 µM	4.93 µM
C=CC(=O)Nc1cccc(C)c1Nc1ncc2cc(-c3c(Cl)c(OC)cc(OC)c3Cl)ccc2n1	6.85 µM	52.9 µM	6.31 µM	67.7 µM	4.11 µM	24.8 µM	2.33 µM	14.1 µM	10.2 µM	26.9 µM	4.07 µM	66.5 µM	3.47 µM	> 100 µM	3.69 µM	38.6 µM	4.26 µM	28.7 µM	7.96 µM	42.9 µM
